Data from PMC12718261, “New Fluorescent Synthetic Retinoids as Potential RAR Agonists with Anticancer, Molecular Docking and ADME Assessments” (Journal of Fluorescence, 2025).
Where “and” joins values, the source holds several entries; their conditions need not be identical. Equal entries are not always repeated.

Key:
Assay type in all cases: cell-based
[1] = system: total ATPase in Caco-2 cells; assay: Total ATPase activity, malachite green colorimetric; conditions: Caco-2, IC50 dose, 24 h; 0.1% DMSO control normalized to 100%
Experimental: (§1) The total activity of ATPase and calcium-independent ATPase activity was quantified colorimetrically as described by our previous protocol. […] The inorganic phosphate (Pi) liberated after the hydrolysis of ATP by ATPase enzymes was complexed into a colored product in one step after the addition of a mixed reagent containing malachite green, ammonium molybdate, and polyvinyl alcohol (2:1:1). The intensity of absorbance at 630 nm was measured using the BioTek 800 TS absorbance plate reader (USA) and was directly proportional to the quantity of liberated Pi. In order to eliminate any color due to the non-enzymatic hydrolysis of ATP, control reactions were made using only ATP in the reaction buffer, and the absorbance intensity was then subtracted from the readings of the samples and standards.

HCT-116 = assay: MTT anti-proliferative assay; conditions: Homo sapiens; HCT-116, MTT, 24 h, mean ± SEM
Experimental: (§2) The antiproliferation and cytotoxicity were assessed using 3-(4,5-dimethylthiazol-2-yl)−2,5-diphenyltetrazolium bromide (MTT, Serva) colorimetric assay. All tested cancer cell lines were seeded at a density of 20,000 cells per well in 96-well plates and allowed to adhere overnight. The attached cells were treated with five serial dilutions (100, 50, 5, 0.5, and 0.1 μM) in triplicate. These concentrations were prepared by diluting the stock solutions with serum-free culture media. The negative control cells were those treated with 0.1% DMSO solvent alone. The treated cells were handled in reduced light and maintained under standard culture growth conditions for 24 h. After the incubation period, MTT powder was prepared as a stock solution (5 mg/mL), and 20 μL of the MTT working reagent (final concentration 0.5 mg/mL) was added to each well. This was followed by incubation with MTT reagent for 4 h in a humidified atmosphere (37 °C, 5% CO2) with subsequent addition of 150 μL of DMSO solubilizing solvent and incubation for 20 min. The absorbance of solubilized violet formazan crystals was measured at 570 nm with a Biotek 800 TS microplate reader. IC50 was calculated as the concentration of retinoid that produced 50% cell growth inhibition. For cytotoxicity assessment, WI-38 normal human fibroblast cells were used for the calculation of SI, which is the ratio of IC50 retinoid (WI-38)/IC50 retinoid (cancer cell line).

MCF-7 = assay: MTT anti-proliferative assay; conditions: Homo sapiens, MCF7; MCF-7, MTT, 24 h, mean ± SEM
Experimental: as §2

HepG-2 = assay: MTT anti-proliferative assay; conditions: Homo sapiens, HepG2; HepG-2, MTT, 24 h, mean ± SEM
Experimental: as §2

MDA-MB231 = assay: MTT anti-proliferative assay; conditions: Homo sapiens, MDA-MB-231, 24 h, mean ± SEM
Experimental: as §2

PC-3 = assay: MTT anti-proliferative assay; conditions: Homo sapiens; PC-3, MTT, 24 h, mean ± SEM
Experimental: as §2

Caco-2 = assay: MTT anti-proliferative assay; conditions: Homo sapiens; Caco-2, MTT, 24 h, mean ± SEM
Experimental: as §2

[2] = system: WI-38 normal human fibroblast cells; assay: MTT cytotoxicity assay on normal fibroblasts; conditions: WI-38 normal fibroblast cells, 24 h, mean ± SEM
Experimental: as §2

[3] = system: calcium-independent ATPases in Caco-2 cells; assay: Calcium-independent ATPase activity, malachite green colorimetric; conditions: Caco-2, IC50 dose, 24 h; 0.1% DMSO control normalized to 100%
Experimental: as §1

Caco-2 cancer cells [4] = assay: Cell cycle assay PI staining flow cytometry; conditions: Caco-2, IC50 dose, 24 h
Experimental: The standard protocol used in HSBR was performed. […] Cells were concentrated at 1500 xg and suspended in 50 μg/ml propidium iodide (PI) staining solution and 20 µg/ml RNaseA to identify cells with a sub-G1 DNA content. Cytoflex flow cytometer (Beckman Coulter, USA) was used, and CytExpert software (version 2.4.0.28) was employed for data analysis. The gating strategy used to eliminate doublets depends on plotting the population against a 2D contour plot in four quadrants, referred to as Q1(LL), Q2 (LR), Q3 (UL), and Q4 (UR), that illustrates the spread of the Annexin-FITC-H core cell population against PI PE-H.

Caco-2 cancer cells [5] = assay: Apoptosis assay Annexin V/PI flow cytometry; conditions: Caco-2, IC50 dose, 24 h, AV/PI
Experimental: The standard protocol used in HSBR was performed. […] Cells were rinsed with 1 mL of binding buffer; the cells were again suspended in phosphate-buffered saline (PBS) (Lonza). 100 µL of cell suspension was incubated with 1 µL of FITC-labeled Annexin-V and 5 µL of PI for 15 min at 4 °C in the dark. The suspension was then mixed with 400 µL of ice-cold binding buffer, and each sample's apoptotic cells were analyzed using a Cytoflex flow cytometer (Beckman Coulter, USA), and CytExpert software (version 2.4.0.28) was employed for data analysis.

[6] = system: RAR-α gene in Caco-2 cells; assay: Gene expression RT-qPCR; conditions: Caco-2, IC50 dose, 24 h, relative to 0.1% DMSO, normalized to GAPDH
Experimental: (§3) The gene expression analysis was performed using real-time quantitative PCR (RT-qPCR), as previously documented. After incubation, cells were harvested, and total RNA was extracted using the Favor-PrepTM Blood/Cultured Cell Total RNA Purification Mini kit (Favorgen Biotech Corp., Ping-Tung, Taiwan). The purified RNA was then reverse transcribed into the first-strand cDNA using the Revert Aid First-Strand cDNA Synthesis Kit (Thermo Scientific, Waltham, MA, USA). All qPCR reactions were carried out using the […] SYBR® Green qPCR Kit (Willowfort, Nottingham, UK). Differential gene expression was performed using the 2ˆ^−ΔΔCT method utilizing GAPDH as a reference gene.

[7] = system: Cyt-C gene in Caco-2 cells; assay: Gene expression RT-qPCR; conditions: Caco-2, IC50 dose, 24 h, relative to 0.1% DMSO, normalized to GAPDH
Experimental: as §3

[8] = system: Caspase-3 gene in Caco-2 cells; assay: Gene expression RT-qPCR; conditions: Caco-2, IC50 dose, 24 h, relative to 0.1% DMSO, normalized to GAPDH
Experimental: as §3

[9] = system: CRABPI gene in Caco-2 cells; assay: Gene expression RT-qPCR; conditions: Caco-2, IC50 dose, 24 h, relative to 0.1% DMSO, normalized to GAPDH
Experimental: as §3

[10] = system: CRABPII gene in Caco-2 cells; assay: Gene expression RT-qPCR; conditions: Caco-2, IC50 dose, 24 h, relative to 0.1% DMSO, normalized to GAPDH
Experimental: as §3

[11] = system: RAR-γ gene in Caco-2 cells; assay: Gene expression RT-qPCR; conditions: Caco-2, IC50 dose, 24 h, relative to 0.1% DMSO, normalized to GAPDH
Experimental: as §3

[12] = system: RAR-α, RAR-β, RAR-γ proteins in Caco-2 cells; assay: Western blotting of RAR proteins; conditions: Caco-2, IC50 dose, 24 h, normalized to β-actin
Experimental: Using the previously outlined protocol, the western blot technique was used to determine the expression of RAR-α (Cat. No. E6Z6 K, cell signaling, USA), RAR-β (Cat. No. PP-H4338-00, R&D systems, USA) and RAR- γ (Cat. No. D3 A4, cell signaling, USA) in Caco-2 cells. […] Following incubation, floating adhered cells were separated and lysed. The Caco-2 cell lysate was immediately collected, subjected to sonication, and centrifuged for 15 min at 12,000 × g. The total soluble protein content was measured colorimetrically using the PierceTM 660 nm Assay (Thermo Scientific, Waltham, MA, USA) after the resultant supernatant was separated. The Gel documentation system (Geldoc-it, UVP, England) was applied for data analysis using Totallab analysis software (Ver.1.0.1) (ww.totallab.com).

- IC50 (HCT-116): 36.9 ± 2.4 µM
- IC50 (MCF-7): 53.1 ± 5.4 µM
- IC50 (MDA-MB231): 2.28 ± 0.2 µM
- IC50 (PC-3): 2.71 ± 0.2 µM
- IC50 (Caco-2): 15 ± 0.4 µM
Compound: O=C(O)c1ccc2cc(-c3ccc4c(c3)CCCO4)ccc2c1 [Compound 4b, 6-(chroman-6-yl)−2-naphthoic acid]
- total ATPase activity [1]: 34.6%
- IC50 (HepG-2): 59.5 ± 3.5 µM
- IC50 [2]: 33.5 ± 3.4 µM
- ca+2-independent ATPase activity [3]: 36.1%
- % G0-G1 (Caco-2 cancer cells [4]): 17.69 ± 3.2%
- % G2M (Caco-2 cancer cells [4]): 1.76 ± 0.1%
- % S (Caco-2 cancer cells [4]): 4.16 ± 1.5%
- % SubG0-G1 (Caco-2 cancer cells [4]): 76.81% and 76.81 ± 6.7 %
- % Early apoptotic cells (LR) (Caco-2 cancer cells [5]): 61.41% and 61.41 ± 5.3 %
- % Late apoptotic cells (UL) (Caco-2 cancer cells [5]): 0.09%
- % Necrotic cells (UR) (Caco-2 cancer cells [5]): 38.12 ± 2.8 %
- % Viable cells (LL) (Caco-2 cancer cells [5]): 0.37%
- RAR-α gene expression fold change [6]: 2.9 ± 0.1 fold
- Cyt-C gene expression fold change [7]: 1.7 ± 0.1 fold
- caspase-3 gene expression fold change [8]: 2.3 ± 0.1 fold
- CRABPI gene expression fold change [9]: 53.5 ± 2.4 fold
- CRABPII gene expression fold change [10]: 2.0 ± 0.1 fold
- RAR-γ gene expression fold change [11]: 4.3 ± 0.2 fold
- RAR protein expression (western blot) [12]: overexpression of all RAR subtypes
